These results are taken from patent publication US20260297042A1, “BIARYLAMIDE DERIVATIVES AND THEIR USE AS PKMYT1 INHIBITORS” (CANCER RESEARCH TECHNOLOGY LIMITED, priority 2023, published 2026).

Assay [1] has as its target T1, WEE1 (Homo sapiens, UniProt P30291).
T1 construct: purchased Thermo Fisher PR7373A
In words: Selectivity versus WEE1 assay (ADP-Glo enzymatic assay). It is filed as biochemical. The following applies: for IC50: ADP-Glo; for PKMYT1 vs. WEE1 selectivity: fold difference in selectivity for PKMYT1 over WEE1. The essentials: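 Inhibition is measured as reduced ADP production, detected by luminescence with ADP-Glo, after enzyme (15 nM) and 30 µM ATP react for 60 min at 26° C in 1% DMSO-containing HEPES buffer, pH 7.5. Data are accepted only if replicate IC50s fall within 3-fold and r2 exceeds 0.9.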

For assay [2], the target named is T2, Human PKMYT1 (Homo sapiens, UniProt Q99640).
T2 construct: Human PKMYT1 75-362 was cloned as a TEV cleavable 6xHis fusion; 6xHis (TEV cleavable) (cleaved yes); made in house; host or cells: bacterial cells
T2 sequence (Q99640 75-362): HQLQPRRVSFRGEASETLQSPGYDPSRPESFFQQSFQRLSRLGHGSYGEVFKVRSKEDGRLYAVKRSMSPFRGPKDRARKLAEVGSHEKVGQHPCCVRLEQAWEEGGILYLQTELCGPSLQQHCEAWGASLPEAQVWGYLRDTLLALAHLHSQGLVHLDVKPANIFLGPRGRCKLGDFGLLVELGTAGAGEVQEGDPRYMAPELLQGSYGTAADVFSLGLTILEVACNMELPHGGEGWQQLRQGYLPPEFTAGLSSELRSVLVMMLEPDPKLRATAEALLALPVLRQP
In words: PKMYT1 biochemical ADP-Glo enzymatic assay. As to conditions: ADP-Glo. The essentials: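 IC50 derived from luminescence (ADP-Glo Max) after PKMYT1 kinase domain, 15 nM, turned over 500 µM ATP for 60 min at 26 °C. Buffer contained 10 mM MgCl2, 1 mM EGTA and 0.01% Brij-35 at pH 7.5.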

Where [3] appears, read: 15 nM WEE1, 60 minutes at 26° C., banded.
Where [4] appears, read: banded, ">N" = at least in this band but could be higher.
The mark [5] stands for this setting: 15 nM PKMYT1 kinase domain, 500 µM ATP, 60 minutes at 26° C., banded.
[6] abbreviates: PKMYT1 kinase domain 15 nM, banded values.

Counter-ions that a name gives are not always drawn.

T1 sequence (P30291 whole entry): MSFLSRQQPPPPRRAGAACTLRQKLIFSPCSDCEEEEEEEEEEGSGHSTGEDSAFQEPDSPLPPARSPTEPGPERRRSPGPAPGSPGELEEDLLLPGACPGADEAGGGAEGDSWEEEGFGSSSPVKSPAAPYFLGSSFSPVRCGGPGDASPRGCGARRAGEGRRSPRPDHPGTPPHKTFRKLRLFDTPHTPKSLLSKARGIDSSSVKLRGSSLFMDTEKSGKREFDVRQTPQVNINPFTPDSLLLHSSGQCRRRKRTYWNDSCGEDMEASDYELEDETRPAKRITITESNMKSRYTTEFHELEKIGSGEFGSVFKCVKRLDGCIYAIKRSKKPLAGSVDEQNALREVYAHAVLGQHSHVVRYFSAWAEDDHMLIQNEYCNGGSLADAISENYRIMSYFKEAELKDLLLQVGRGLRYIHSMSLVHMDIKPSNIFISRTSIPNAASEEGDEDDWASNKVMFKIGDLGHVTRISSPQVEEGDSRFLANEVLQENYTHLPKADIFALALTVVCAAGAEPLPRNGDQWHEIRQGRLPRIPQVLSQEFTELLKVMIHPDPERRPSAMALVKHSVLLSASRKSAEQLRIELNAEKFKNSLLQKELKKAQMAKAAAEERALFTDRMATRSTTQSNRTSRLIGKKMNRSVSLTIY

For `Cc1ccc(O)c(C)c1NC(=O)c1cnc(NCc2ccncc2)s1` [BAA-350, N-(3-hydroxy-2,6-dimethylphenyl)-2-((pyridin-4-ylmethyl)amino) thiazole-5-carboxamide], the IC50 in assay [1] (setting [3]) is over 11000 nM; in assay [2] (setting [5]) it was 50 to 1000 nM. Moreover, the “PKMYT1 vs. WEE1 selectivity” value in assay [1] (setting [4]) is listed as “Y (1000-5000 fold)”.
As to `Cc1ccc(O)c(C)c1NC(=O)c1cnc(Nc2ccn(CC(=O)N3CCN(C4CCC4)CC3)n2)s1` [BAA-185], the IC50 is over 11000 nM in assay [1] (setting [3]) and 50 to 1000 nM in assay [2] (setting [5]). Further, the “PKMYT1 vs. WEE1 selectivity” value in assay [1] (setting [4]) is “>Y (1000-5000 fold)”.
Consider `Cc1ccc(O)c(C)c1NC(=O)c1cnc(Nc2ccn(CC(=O)N3C[C@@H](C)N(C(=O)OC(C)(C)C)[C@@H](C)C3)n2)s1` [BAA-156], for which the IC50 was over 11000 nM in assay [1] (setting [3]) and under 50 nM in assay [2] (setting [5]). In assay [1] (setting [4]), the “PKMYT1 vs. WEE1 selectivity” value was “Y (1000-5000 fold)”.
The matching figures for `Cc1ccc(O)c(C)c1NC(=O)c1cnc(NCc2nccn2C)s1` [BAA-362, N-(3-hydroxy-2,6-dimethylphenyl)-2-(((1-methyl-1H-imidazol-2-yl)methyl)amino)thiazole-5-carboxamide]: over 11000 nM, 1000 to 11000 nM and “W (10-<100 fold)”.
With `Cc1ccc(O)c(C)c1NC(=O)c1cnc(NCCCN2CCN(C)CC2)s1` [BAA-218, N-(3-Hydroxy-2,6-dimethyl-phenyl)-2-[3-(4-methylpiperazin-1-yl)propylamino]thiazole-5-carboxamide], the IC50 in assay [1] (setting [3]) was over 11000 nM; in assay [2] (setting [5]) it was 1000 to 11000 nM. Moreover, the “PKMYT1 vs. WEE1 selectivity” value in assay [1] (setting [4]) was “W (10-<100 fold)”.
`Cc1ccc(O)c(C)c1NC(=O)c1cnc(Nc2ccc(C(F)(F)F)cn2)s1` [BAA-280, N-(3-hydroxy-2,6-dimethylphenyl)-2-((5-(trifluoromethyl)pyridin-2-yl)amino)thiazole-5-carboxamide]: the figures for the IC50 in assay [1] (setting [3]) and in assay [2] (setting [5]) were over 11000 nM and 50 to 1000 nM, respectively. Besides, the “PKMYT1 vs. WEE1 selectivity” value in assay [1] (setting [4]) is recorded as “Y (1000-5000 fold)”.
The like results for `Cc1ccc(O)c(C)c1NC(=O)c1cnc(NCc2cccc(O)c2)s1` [BAA-346, N-(3-hydroxy-2,6-dimethylphenyl)-2-((3-hydroxybenzyl)amino)thiazole-5-carboxamide] were, in that order, over 11000 nM, under 50 nM and “Y (1000-5000 fold)”.
The like results for `Cc1ccc(O)c(C)c1NC(=O)c1cnc(Nc2nn(C)c3cc(Br)ccc23)s1` [BAA-267, 2-((6-bromo-1-methyl-1H-indazol-3-yl)amino)-N-(3-hydroxy-2,6-dimethylphenyl)thiazole-5-carboxamide] were, in that order, over 11000 nM, 50 to 1000 nM and “X (100-<1000 fold)”.
The like results for `Cc1ccc(O)c(C)c1NC(=O)c1cnc(Nc2cc(C)n(CC(=O)N3CCN(C)CC3)n2)s1` [BAA-201] were, in that order, over 11000 nM, under 50 nM and “X (100-<1000 fold)”.
On to `COCCN(CCOC)C(=O)Cn1cc(C)c(Nc2ncc(C(=O)Nc3c(C)ccc(O)c3C)s2)n1` [BAA-542, 2-((1-(2-(bis(2-methoxyethyl)amino)-2-oxoethyl)-4-methyl-1H-pyrazol-3-yl)amino)-N-(3-hydroxy-2,6-dimethyl-phenyl)thiazole-5-carboxamide], for which the IC50 in assay [1] (WEE1 15 nM, banded values) is over 11000 nM; in assay [2] (setting [6]) it was under 50 nM. Further, in assay [1] (banded), the “PKMYT1 vs. WEE1 selectivity” value was “X (100-<1000 fold)”.
For `Cc1ccc(O)c(C)c1NC(=O)c1cnc(Nc2ccc(C(F)(F)F)cc2)s1` [BAA-278, N-(3-hydroxy-2,6-dimethylphenyl)-2-((4-(trifluoromethyl)phenyl)amino)thiazole-5-carboxamide], the IC50 in assay [1] (setting [3]) is over 11000 nM; in assay [2] (setting [5]) it was 1000 to 11000 nM. In addition, in assay [1] (setting [4]), the “PKMYT1 vs. WEE1 selectivity” value is “W (10-<100 fold)”.
`Cc1ccc(O)c(C)c1NC(=O)c1cnc(Nc2cccc(S(=O)(=O)N3CC(F)(F)C(F)(F)C3)c2)s1` [BAA-286, N-(3-hydroxy-2,6-dimethylphenyl)-2-((3-((3,3,4,4-tetrafluoropyrrolidin-1-yl)sulfonyl)phenyl)amino)thiazole-5-carboxamide]: the IC50 was over 11000 nM in assay [1] (setting [3]) and 1000 to 11000 nM in assay [2] (setting [5]). Moreover, in assay [1] (setting [4]), the “PKMYT1 vs. WEE1 selectivity” value is “W (10-<100 fold)”.
Consider `Cc1ccc(O)c(C)c1NC(=O)c1cnc(NCCCN2CCN(C(=O)OC(C)(C)C)CC2)s1` [BAA-073, tert-butyl 4-[3-[[5-[(3-hydroxy-2,6-dimethyl-phenyl)carbamoyl]thiazol-2-yl]amino]propyl]piperazine-1-carboxylate], for which the IC50 in assay [1] (setting [3]) was over 11000 nM; in assay [2] (setting [5]), 50 to 1000 nM. Further, in assay [1] (setting [4]), the “PKMYT1 vs. WEE1 selectivity” value is recorded as “>X (100-<1000 fold)”.
The like results for `CCC(=O)N1CC[C@@H](n2ccc(Nc3ncc(C(=O)Nc4c(C)ccc(O)c4C)s3)n2)C1` [BAA-085] were, in that order, over 11000 nM, under 50 nM and “>Y (1000-5000 fold)”.
Consider `Cc1ccc(O)c(C)c1NC(=O)c1cnc(Nc2cc(C(N)=O)n(C)n2)s1` [BAA-130, 2-[(5-Carbamoyl-1-methyl-pyrazol-3-yl)amino]-N-(3-hydroxy-2,6-dimethyl-phenyl)thiazole-5-carboxamide], for which the IC50 in assay [1] (setting [3]) is 1000 to 11000 nM; in assay [2] (setting [5]) it was under 50 nM. In addition, the “PKMYT1 vs. WEE1 selectivity” value in assay [1] (setting [4]) is listed as “X (100-<1000 fold)”.
The matching figures for `Cc1ccc(O)c(C)c1NC(=O)c1cnc(Nc2ccn(CC(=O)N3CCC(C)(O)CC3)n2)s1` [BAA-169, N-(3-hydroxy-2,6-dimethyl-phenyl)-2-[[1-[2-(4-hydroxy-4-methyl-1-piperidyl)-2-oxo-ethyl]pyrazol-3-yl]amino]thiazole-5-carboxamide]: over 11000 nM, under 50 nM and “Y (1000-5000 fold)”.
Turning to `Cc1ccc(O)c(C)c1NC(=O)c1cnc(Nc2nn(C)c3c2CCC3)s1` [BAA-247, N-(3-hydroxy-2,6-dimethylphenyl)-2-((1-methyl-1,4,5,6-tetrahydrocyclopenta[c]pyrazol-3-yl)amino)thiazole-5-carboxamide], the figures for the IC50 in assay [1] (setting [3]) and in assay [2] (setting [5]) were over 11000 nM and 50 to 1000 nM, respectively. Moreover, in assay [1] (setting [4]), the “PKMYT1 vs. WEE1 selectivity” value was “Y (1000-5000 fold)”.
With `Cc1cn(CCN(C)C)nc1Nc1ncc(C(=O)Nc2c(C)ccc(O)c2C)s1` [BAA-501, 2-((1-(2-(dimethylamino)ethyl)-4-methyl-1H-pyrazol-3-yl)amino)-N-(3-hydroxy-2,6-dimethylphenyl)thiazole-5-carboxamide], the IC50 in assay [1] (WEE1 15 nM, banded values) was over 11000 nM; in assay [2] (setting [6]), 50 to 1000 nM. For the same compound, the “PKMYT1 vs. WEE1 selectivity” value in assay [1] (banded) is “W (10-<100 fold)”.
As for `COc1ccc(CC(=O)N2CC[C@@H](n3ccc(Nc4ncc(C(=O)Nc5c(C)ccc(O)c5C)s4)n3)C2)cc1` [BAA-089], the IC50 is over 11000 nM in assay [1] (setting [3]) and 50 to 1000 nM in assay [2] (setting [5]). In addition, the “PKMYT1 vs. WEE1 selectivity” value in assay [1] (setting [4]) is “>X (100-<1000 fold)”.
As to `COc1ccccc1Nc1ncc(C(=O)Nc2c(C)ccc(O)c2C)s1` [BAA-528, N-(3-hydroxy-2,6-dimethylphenyl)-2-((2-methoxyphenyl)amino)thiazole-5-carboxamide. TFA salt], the IC50 in assay [1] (WEE1 15 nM, banded values) is over 11000 nM; in assay [2] (setting [6]), 50 to 1000 nM. In addition, the “PKMYT1 vs. WEE1 selectivity” value in assay [1] (banded) is “X (100-<1000 fold)”.
Turning to `CCOC(=O)CCCn1ccc(Nc2ncc(C(=O)Nc3c(C)ccc(O)c3C)s2)n1` [BAA-022], the values for the IC50 in assay [1] (setting [3]) and in assay [2] (setting [5]) were 1000 to 11000 nM and 50 to 1000 nM, respectively. For the same compound, in assay [1] (setting [4]), the “PKMYT1 vs. WEE1 selectivity” value is “W (10-<100 fold)”.
In the case of `Cc1ccc(O)c(C)c1NC(=O)c1cnc(NCC2CC2)s1` [BAA-347], the IC50 is over 11000 nM in assay [1] (setting [3]) and 50 to 1000 nM in assay [2] (setting [5]). Further, the “PKMYT1 vs. WEE1 selectivity” value in assay [1] (setting [4]) was “X (100-<1000 fold)”.
Turning to `Cc1ccc(O)c(C)c1NC(=O)c1cnc(Nc2cc(C)n(CC(=O)N3CCCC3)n2)s1` [BAA-203], the IC50 in assay [1] (setting [3]) was over 11000 nM; in assay [2] (setting [5]), under 50 nM. In addition, the “PKMYT1 vs. WEE1 selectivity” value in assay [1] (setting [4]) was “Y (1000-5000 fold)”.
In the case of `Cc1ccc(O)c(C)c1NC(=O)c1cnc(Nc2ccn(CC(=O)N[C@@H](C)CO)n2)s1` [BAA-165], the values for the IC50 in assay [1] (setting [3]) and in assay [2] (setting [5]) were over 11000 nM and under 50 nM, respectively. Moreover, the “PKMYT1 vs. WEE1 selectivity” value in assay [1] (setting [4]) is “Y (1000-5000 fold)”.
`Cc1cn(C)nc1Nc1nnc(C(=O)Nc2c(C)ccc(O)c2C)s1` [BAA-465, 5-((1,4-dimethyl-1H-pyrazol-3-yl)amino)-N-(3-hydroxy-2,6-dimethylphenyl)-1,3,4-thiadiazole-2-carboxamide]: the IC50 in assay [1] (WEE1 15 nM, banded values) was over 11000 nM; in assay [2] (setting [6]), under 50 nM. In addition, the “PKMYT1 vs. WEE1 selectivity” value in assay [1] (banded) is listed as “Y (1000-5000 fold)”.
Regarding `Cc1ccc(O)c(C)c1NC(=O)c1cnc(Nc2ccn(CC(=O)N3CCC4(CCNC4)CC3)n2)s1` [BAA-225, N-(3-hydroxy-2,6-dimethylphenyl)-2-((1-(2-oxo-2-(2,8-diazaspiro[4.5]decan-8-yl)ethyl)-1H-pyrazol-3-yl)amino)thiazole-5-carboxamide], the IC50 is over 11000 nM in assay [1] (setting [3]) and under 50 nM in assay [2] (setting [5]). Besides, the “PKMYT1 vs. WEE1 selectivity” value in assay [1] (setting [4]) is reported as “X (100-<1000 fold)”.
